Values after ≈ are worked out from the molar mass of the structure shown. Each block holds one compound with its values, some of them ahead of it.
Key:
Experiment in all cases: ≥ marks a high value that may be exact or a test limit, other limits are often not marked, values filed in µg/mL are converted to µM
[1] = system: Bacillus subtilis KCCM 11495
[2] = system: Escherichia coli KCCM 11569
[3] = system: Salmonella typhimurium
[4] = system: Escherichia coli UB1005
[5] = system: Escherichia coli 55B5
[6] = system: Pseudomonas aeruginosa
[7] = system: Candida albicans
[8] = system: Pseudomonas aeruginosa M76
[9] = system: Pseudomonas aeruginosa M1426
[10] = system: Pseudomonas aeruginosa R70
[11] = system: Pseudomonas aeruginosa M917
[12] = system: Salmonella enterica serovar Typhimurium
[13] = system: Pseudomonas aeruginosa M1251
[14] = system: Staphylococcus aureus
[15] = system: Ralstonia pickettii
[16] = system: Pseudomonas aeruginosa ATCC 9027
[17] = system: Achromobacter xylosoxidans
[18] = system: Pseudomonas fluorescens
[19] = system: Stenotrophomonas maltophilia
[20] = system: Pseudomonas aeruginosa PAO1
[21] = system: Staphylococcus aureus ATCC 6538
[22] = system: Escherichia coli DC2
[23] = system: Salmonella typhimurium C610
[24] = system: Pseudomonas aeruginosa H188
[25] = system: Bacillus subtilis C971
[26] = system: Enterococcus faecalis C625
[27] = system: Pseudomonas aeruginosa H187
[28] = system: Corynebacterium xerosis C875
[29] = system: Staphylococcus aureus ATCC 25923
[30] = system: Staphylococcus epidermidis C621
[31] = system: Staphylococcus aureus SAP 0017
[32] = system: Salmonella typhimurium C587
[33] = system: Streptococcus gordonii Challis DL1
[34] = system: Streptococcus mutans UA159
[35] = system: Streptococcus sanguinis NY101
[36] = system: Streptococcus mitis ATCC 903
[37] = system: Pseudomonas aeruginosa PAK

MIC [3]: 10.5 µM (≈ 26.1 µg/mL)
MIC [4]: 15.5 µM (≈ 38.5 µg/mL)
MIC [5]: 14.5 µM (≈ 36 µg/mL)
MIC [6]: 12.5 µM (≈ 31 µg/mL)
Compound: CC[C@H](C)[C@H](NC(=O)[C@H](C)N)C(=O)N[C@@H](Cc1cnc[nH]1)C(=O)N[C@@H](CCCCN)C(=O)N[C@@H](CC(C)C)C(=O)N[C@@H](C)C(=O)N[C@@H](Cc1cnc[nH]1)C(=O)N[C@@H](CCCCN)C(=O)N[C@H](C(=O)N[C@@H](CC(C)C)C(=O)N[C@@H](CCCCN)C(=O)N[C@@H](CCCCN)C(=O)N[C@H](C(=O)N[C@@H](CC(C)C)C(=O)N[C@@H](CCCN=C(N)N)C(=O)N[C@@H](C)C(=O)N[C@H](C(=O)N[C@@H](CCCCN)C(=O)N[C@@H](CCCCN)C(=O)N[C@@H](CC(C)C)C(=O)N[C@@H](C)C(=O)N[C@@H](CC(N)=O)C(=O)O)C(C)C)[C@@H](C)O)[C@@H](C)O [AIHKLAHKTLKKTLRAVKKLAN]

MIC [7]: 15.6 µM (≈ 32 µg/mL)
MIC [8]: 3.89 µM (≈ 8 µg/mL)
MIC [9]: 3.89 µM (≈ 8 µg/mL)
MIC [10]: 0.973 µM (≈ 2 µg/mL)
MIC [11]: 15.6 µM (≈ 32 µg/mL)
MIC [4]: 0.973 µM (≈ 2 µg/mL)
MIC [12]: 3.89 µM (≈ 8 µg/mL)
MIC [13]: 3.89 µM (≈ 8 µg/mL)
MIC [14]: > 62.3 µM
MIC [15]: 1.95 µM (≈ 4 µg/mL)
MIC [16]: 7.3 µM (≈ 15 µg/mL)
MIC [17]: 3.89 µM (≈ 8 µg/mL)
MIC [18]: 3.89 µM (≈ 8 µg/mL)
MIC [19]: 0.486 µM (≈ 1 µg/mL)
MIC [6]: 7.78 µM (≈ 16 µg/mL)
MIC [20]: 3.89 µM (≈ 8 µg/mL)
MIC [21]: 7.3 µM (≈ 15 µg/mL)
Compound: CC(C)C[C@H](NC(=O)[C@H](CCCCN)NC(=O)[C@H](CCCCN)NC(=O)[C@H](C)NC(=O)[C@H](CC(C)C)NC(=O)[C@H](CCCCN)NC(=O)[C@H](CCCCN)NC(=O)[C@H](CC(C)C)NC(=O)[C@H](CCCCN)NC(=O)[C@H](CCCCN)NC(=O)[C@H](C)NC(=O)[C@H](CC(C)C)NC(=O)[C@H](CCCCN)NC(=O)[C@H](CCCCN)NC(=O)[C@H](C)NC(=O)[C@@H](N)Cc1ccccc1)C(=O)N[C@@H](C)C(=O)N[C@@H](CCCCN)C(=O)O [FAKKLAKKLKKLAKKLAK]

MIC [22]: 0.869 µM (≈ 2.54 µg/mL)
MIC [23]: 0.869 µM (≈ 2.54 µg/mL)
MIC [24]: 3.51 µM (≈ 10.2 µg/mL)
MIC [25]: 0.695 µM (≈ 2.03 µg/mL)
MIC [26]: 17.6 µM (≈ 51.5 µg/mL)
MIC [4]: 0.869 µM (≈ 2.54 µg/mL)
MIC [27]: 2.22 µM (≈ 6.49 µg/mL)
MIC [28]: 0.695 µM (≈ 2.03 µg/mL)
MIC [29]: 8.82 µM (≈ 25.8 µg/mL)
MIC [30]: 1.11 µM (≈ 3.25 µg/mL)
MIC [31]: 3.51 µM (≈ 10.2 µg/mL)
MIC [32]: 1.74 µM (≈ 5.07 µg/mL)
Compound: CC[C@H](C)[C@H](NC(=O)[C@H](C)NC(=O)[C@H](CCCCN)NC(=O)[C@H](CC(C)C)NC(=O)[C@H](C)NC(=O)[C@@H](NC(=O)[C@H](Cc1cnc[nH]1)NC(=O)[C@H](CC(C)C)NC(=O)[C@@H](NC(=O)[C@@H](NC(=O)[C@H](CCCCN)NC(=O)CNC(=O)[C@H](C)NC(=O)[C@H](CO)NC(=O)[C@H](CCCCN)NC(=O)[C@H](Cc1ccccc1)NC(=O)[C@@H](NC(=O)[C@H](CCCCN)NC(=O)[C@H](CC(C)C)NC(=O)[C@H](Cc1ccccc1)NC(=O)[C@H](CO)NC(=O)[C@H](CCCCN)NC(=O)[C@H](Cc1c[nH]c2ccccc12)NC(=O)[C@H](CCCCN)NC(C)=O)[C@@H](C)O)[C@@H](C)O)C(C)C)[C@@H](C)O)C(=O)N[C@@H](CO)C(=O)N[C@@H](CO)C(N)=O [KWKSFLKTFKSAGKTVLHTALKAISS]

MIC [3]: 15.5 µM (≈ 38.2 µg/mL)
MIC [4]: 20.5 µM (≈ 50.5 µg/mL)
MIC [5]: 25 µM (≈ 61.6 µg/mL)
MIC [6]: 20.5 µM (≈ 50.5 µg/mL)
Compound: CC[C@H](C)[C@H](NC(=O)[C@H](C)N)C(=O)N[C@@H](Cc1cnc[nH]1)C(=O)N[C@@H](CCCCN)C(=O)N[C@@H](CC(C)C)C(=O)N[C@@H](C)C(=O)N[C@@H](Cc1cnc[nH]1)C(=O)N[C@@H](CCCCN)C(=O)N[C@@H](CC(C)C)C(=O)N[C@@H](CC(C)C)C(=O)N1CCC[C@H]1C(=O)N[C@@H](CCCCN)C(=O)N[C@H](C(=O)N[C@@H](CC(C)C)C(=O)N[C@@H](CCCN=C(N)N)C(=O)N[C@@H](C)C(=O)N[C@H](C(=O)N[C@@H](CCCCN)C(=O)N[C@@H](CCCCN)C(=O)N[C@@H](CC(C)C)C(=O)N[C@@H](C)C(=O)N[C@@H](CC(N)=O)C(=O)O)C(C)C)[C@@H](C)O [AIHKLAHKLLPKTLRAVKKLAN]

The next lines start with the compound.

Compound: CC(C)C[C@H](NC(=O)CNC(=O)[C@H](Cc1cnc[nH]1)NC(=O)[C@H](Cc1cnc[nH]1)NC(=O)[C@H](CC(C)C)NC(=O)[C@H](CC(C)C)NC(=O)[C@H](C)NC(=O)[C@H](CC(N)=O)NC(=O)[C@H](CC(C)C)NC(=O)[C@@H](N)Cc1c[nH]c2ccccc12)C(=O)N[C@@H](CC(N)=O)C(=O)N[C@@H](CS)C(=O)N[C@@H](C)C(N)=O [WLNALLHHGLNCA]
MIC [1]: ≥ 43.8 µM
MIC [2]: ≥ 43.8 µM

Compound: CC[C@H](C)[C@H](NC(=O)[C@H](C)NC(=O)[C@H](CCCCN)NC(=O)[C@H](CC(C)C)NC(=O)[C@H](C)NC(=O)[C@@H](NC(=O)[C@H](Cc1cnc[nH]1)NC(=O)[C@H](CC(C)C)NC(=O)[C@@H](NC(=O)[C@@H](NC(=O)[C@H](CCCCN)NC(=O)[C@@H](NC(=O)[C@H](C)NC(=O)[C@@H](NC(=O)[C@H](CCCCN)NC(=O)[C@H](Cc1ccccc1)NC(=O)[C@@H](NC(=O)[C@H](CCCCN)NC(=O)[C@H](CC(C)C)NC(=O)[C@H](Cc1ccccc1)NC(=O)[C@H](CO)NC(=O)[C@H](CCCCN)NC(=O)[C@H](Cc1c[nH]c2ccccc12)NC(=O)[C@H](CCCCN)NC(C)=O)[C@@H](C)O)C(C)C)C(C)C)[C@@H](C)O)C(C)C)[C@@H](C)O)C(=O)N[C@@H](CO)C(=O)N[C@@H](CO)C(N)=O [KWKSFLKTFKVAVKTVLHTALKAISS]
MIC [22]: 1.36 µM (≈ 4.06 µg/mL)
MIC [23]: 1.71 µM (≈ 5.07 µg/mL)
MIC [24]: 6.89 µM (≈ 20.5 µg/mL)
MIC [25]: 0.853 µM (≈ 2.54 µg/mL)
MIC [26]: 6.89 µM (≈ 20.5 µg/mL)
MIC [4]: 2.18 µM (≈ 6.49 µg/mL)
MIC [27]: 3.44 µM (≈ 10.2 µg/mL)
MIC [28]: 0.443 µM (≈ 1.32 µg/mL)
MIC [29]: 5.46 µM (≈ 16.2 µg/mL)
MIC [30]: 2.73 µM (≈ 8.11 µg/mL)
MIC [31]: 4.33 µM (≈ 12.9 µg/mL)
MIC [32]: 10.9 µM (≈ 32.4 µg/mL)

Compound: CC[C@H](C)[C@H](NC(=O)CNC(=O)CNC(=O)CNC(=O)[C@H](Cc1ccccc1)NC(=O)[C@H](CCCN=C(N)N)NC(=O)[C@H](Cc1cnc[nH]1)NC(=O)[C@@H](NC(=O)[C@H](Cc1ccccc1)NC(=O)[C@H](Cc1cnc[nH]1)NC(=O)[C@H](CCCCN)NC(=O)[C@@H](NC(=O)[C@@H](N)Cc1ccccc1)[C@@H](C)CC)[C@@H](C)CC)C(=O)N[C@@H](CCCCN)C(=O)N[C@@H](CCC(N)=O)C(=O)N[C@@H](CC(C)C)C(=O)N[C@@H](CC(C)C)C(=O)N[C@@H](Cc1cnc[nH]1)C(=O)N[C@@H](Cc1ccccc1)C(=O)N[C@@H](Cc1ccccc1)C(=O)N[C@@H](CCC(N)=O)C(=O)N[C@@H](CCCN=C(N)N)C(=O)N[C@@H](Cc1ccccc1)C(N)=O [FIKHFIHRFGGGIKQLLHFFQRF]
MIC [33]: 11.1 µM (≈ 32 µg/mL)
MIC [34]: 2.78 µM (≈ 8 µg/mL)
MIC [35]: 11.1 µM (≈ 32 µg/mL)
MIC [14]: 21.7 µM (≈ 62.5 µg/mL)
MIC [36]: 5.57 µM (≈ 16 µg/mL)
MIC [37]: ≥ 43.5 µM
